Measurements taken from PubChem BioAssay AID1259411 (Chemical Carcinogenesis Research Information System (CCRIS), 2018).
The source made the active and inactive calls. No rule for the calls is given here.

Tested on: rodent carcinogenicity bioassays, tumor incidence
Assay: CCRIS carcinogenicity studies
Conditions: Species: RAT
Procedure, shortened: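 NCI-built, expert-reviewed records of carcinogenicity and related test outcomes (mutagenicity, tumor promotion/inhibition) compiled from published and report sources, historical span 1985-2011, not updated.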

What does the source list for `C=CCl`?
carcinogen call (Strain/Sex: SPRAGUE-DAWLEY/FEMALE, Route: INHALATION, Dose: 0, 6000, 10000 PPM IN AIR 4 HR/D 1 D/WK FOR 25 WK (STUDY DURATION: LIFETIME), Dose: 0, 6000, 10000 PPM IN AIR 4 HR/D 1 D/WK FOR 25 WK (STUDY DURATION: LIFETIME), Tumor Site: Type of Lesion: [BRAIN WAS ONLY SITE EVALUATED]): inactive; negative; carcinogen call (Strain/Sex: SPRAGUE-DAWLEY/FEMALE, Route: INHALATION, Dose: 0, 6000, 10000 PPM IN AIR 4 HR/D 5 D/WK FOR 5 WK (STUDY DURATION: LIFETIME), Dose: 0, 6000, 10000 PPM IN AIR 4 HR/D 5 D/WK FOR 5 WK (STUDY DURATION: LIFETIME), Tumor Site: Type of Lesion: [BRAIN WAS ONLY SITE EVALUATED]): inactive; negative; carcinogen call (Strain/Sex: SPRAGUE-DAWLEY/MALE,FEMALE, Route: GAVAGE, Dose: 0, 3.33, 16.65, 50.0 MG/KG IN OLIVE OIL 1/D, 4-5 D/WK FOR 52 WK (STUDY DURATION: 136 WK), Dose: 0, 3.33, 16.65, 50.0 MG/KG IN OLIVE OIL 1/D, 4-5 D/WK FOR 52 WK (STUDY DURATION: 136 WK), Tumor Site: Type of Lesion: LIVER: ANGIOSARCOMA): active; positive; carcinogen call (Strain/Sex: SPRAGUE-DAWLEY/MALE,FEMALE, Route: INHALATION, Dose: 0, 50-10000 PPM 4 HR/D, 5 D/WK FOR 52 WK (STUDY DURATION: 135 WK), Tumor Site: Type of Lesion: LIVER: ANGIOSARCOMA, NERVOUS SYSTEM: NEUROBLASTOMA, EAR (ZYMBAL GLAND): CARCINOMA, KIDNEY: NEPHROBLASTOMA, Tumor Site: Type of Lesion: LIVER: ANGIOSARCOMA, NERVOUS SYSTEM: NEUROBLASTOMA, EAR (ZYMBAL GLAND): CARCINOMA, KIDNEY: NEPHROBLASTOMA): active; positive; carcinogen call (Strain/Sex: SPRAGUE-DAWLEY/MALE, Route: GAVAGE, Dose: 0, 0.03, 0.3, 1, 3.33, 16.65, 50 MG/KG BW IN OLIVE OIL 1/D 4-5 D/WK FOR 52-59 WK (STUDY DURATION: LIFETIME), Dose: 0, 0.03, 0.3, 1, 3.33, 16.65, 50 MG/KG BW IN OLIVE OIL 1/D 4-5 D/WK FOR 52-59 WK (STUDY DURATION: LIFETIME), Tumor Site: Type of Lesion: [BRAIN WAS ONLY SITE EVALUATED]): inactive; negative; carcinogen call (Strain/Sex: SPRAGUE-DAWLEY/MALE, Route: INHALATION, Dose: 0, 600 PPM 4 HR/D, 5 D/WK FOR 1 YR (STUDY DURATION: 2.5 YR), Tumor Site: Type of Lesion: LIVER: HEPATOCELLULAR CARCINOMA, ANGIOSARCOMA): active; positive; carcinogen call (Strain/Sex: SPRAGUE-DAWLEY/MALE, Route: INHALATION, Dose: 0, 2500 PPM 4 HR/D 5 D/WK FOR 7 WK THEN 7 HR/D 5 D/WK FOR 8 WK ADMINISTERED TO RAT EMBRYOS BEGINNING ON 12TH DAY OF GEST, Tumor Site: Type of Lesion: LIVER: HEPATOMA, ANGIOSARCOMA, BRAIN: NEUROBLASTOMA): active; positive; carcinogen call (Strain/Sex: SPRAGUE-DAWLEY/MALE, Route: INHALATION, Dose: 0, 2500 PPM 4 HR/D 5 D/WK FOR 7 WK THEN 7 HR/D 5 D/WK FOR 69 WK ADMINISTERED TO RAT EMBRYOS BEGINNING ON 12TH DAY OF GES, Tumor Site: Type of Lesion: BRAIN: NEUROBLASTOMA, LIVER, HEPATOCARCINOMA, ANGIOSARCOMA, Tumor Site: Type of Lesion: BRAIN: NEUROBLASTOMA, LIVER, HEPATOCARCINOMA, ANGIOSARCOMA): active; positive; carcinogen call (Strain/Sex: SPRAGUE-DAWLEY/MALE, Route: INHALATION, Dose: 0, 6000, 10000 PPM IN AIR 1 HR/D 4 D/WK FOR 25 WK (STUDY DURATION: LIFETIME), Dose: 0, 6000, 10000 PPM IN AIR 1 HR/D 4 D/WK FOR 25 WK (STUDY DURATION: LIFETIME), Tumor Site: Type of Lesion: [BRAIN WAS ONLY SITE EVALUATED]): inactive; negative; carcinogen call (Strain/Sex: SPRAGUE-DAWLEY/MALE, Route: INHALATION, Dose: 0, 6000, 10000 PPM IN AIR 4 HR/D 1 D/WK FOR 25 WK (STUDY DURATION: LIFETIME), Dose: 0, 6000, 10000 PPM IN AIR 4 HR/D 1 D/WK FOR 25 WK (STUDY DURATION: LIFETIME), Tumor Site: Type of Lesion: [BRAIN WAS ONLY SITE EVALUATED]): inactive; negative; carcinogen call (Strain/Sex: SPRAGUE-DAWLEY/MALE, Route: INHALATION, Dose: 0, 6000, 10000 PPM IN AIR 4 HR/D 5 D/WK FOR 5 WK (STUDY DURATION: LIFETIME), Dose: 0, 6000, 10000 PPM IN AIR 4 HR/D 5 D/WK FOR 5 WK (STUDY DURATION: LIFETIME), Tumor Site: Type of Lesion: [BRAIN WAS ONLY SITE EVALUATED]): inactive; negative; carcinogen call (Strain/Sex: SPRAGUE-DAWLEY, Route: ORAL, Tumor Site: Type of Lesion: LIVER): active; positive; carcinogen call (Strain/Sex: WISTAR/FEMALE, Route: ORAL, Dose: 0, 0.014, 0.13, 1.3 MG/KG/BW/D IN DIET FOR DURATION OF STUDY (STUDY DURATION: 150 WK), Dose: 0, 0.014, 0.13, 1.3 MG/KG/BW/D IN DIET FOR DURATION OF STUDY (STUDY DURATION: 150 WK), Tumor Site: Type of Lesion: LIVER: NEOPLASTIC NODULES): active; positive; carcinogen call (Strain/Sex: WISTAR/MALE, Route: INHALATION, Dose: 0, 1, 50, 250, 500, 2500, 6000, 10000 PPM 4 HR/D, 5 D/WK FOR 52 WK (STUDY DURATION: 134-165 WK), Dose: 0, 1, 50, 250, 500, 2500, 6000, 10000 PPM 4 HR/D, 5 D/WK FOR 52 WK (STUDY DURATION: 134-165 WK), Tumor Site: Type of Lesion: LIVER: ANGIOSARCOMA, NERVOUS SYSTEM: NEUROBLASTOMA): active; positive; carcinogen call (Strain/Sex: WISTAR/MALE, Route: ORAL, Dose: 0, 0.014, 0.13, 1.3 MG/KG/BW/D IN DIET FOR DURATION OF STUDY (STUDY DURATION: 149 WK), Dose: 0, 0.014, 0.13, 1.3 MG/KG/BW/D IN DIET FOR DURATION OF STUDY (STUDY DURATION: 149 WK), Tumor Site: Type of Lesion: LIVER: HEPATOCELLULAR CARCINOMA): active; positive
